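Compound exposure: 48 hours, 5 concentrations, 96-well plates. GI50: concentration for 50% inhibition of growth.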 Activity calls are given as the source filed them. Cut-off read from the data, not from the text of the source: active = GI50 up to about 1.1 µM and inactive = higher.
Legend:
Test in all cases: inhibition of tumour cell growth, NCI panel, 48 h
COLO 205 = test system: COLO 205
SK-MEL-5 = test system: SK-MEL-5
NCI-H460 = test system: NCI-H460
SF-539 = test system: SF-539
LOX IMVI = test system: LOX IMVI
ACHN = test system: ACHN
MDA-N = test system: MDA-N
DU-145 = test system: DU-145
HL-60 = test system: HL-60
A549 = test system: A549
UACC-62 = test system: UACC-62
MDA-MB-435 = test system: MDA-MB-435
NCI-H522 = test system: NCI-H522
M14 = test system: M14
SK-MEL-2 = test system: SK-MEL-2
IGROV-1 = test system: IGROV-1
SK-MEL-28 = test system: SK-MEL-28
PC-3 = test system: PC-3
786-0 = test system: 786-0
UACC-257 = test system: UACC-257
SN12C = test system: SN12C
CAKI-1 = test system: CAKI-1
OVCAR-5 = test system: OVCAR-5
KM12 = test system: KM12
TK-10 = test system: TK-10
UO-31 = test system: UO-31
K562 = test system: K562
MOLT-4 = test system: MOLT-4
A498 = test system: A498
HCT-116 = test system: HCT-116
NCI-H226 = test system: NCI-H226
RXF 393 = test system: RXF 393
HOP-62 = test system: HOP-62
SF-295 = test system: SF-295
BT-549 = test system: BT-549
SNB-19 = test system: SNB-19
MDA-MB-231 = test system: MDA-MB-231
RPMI-8226 = test system: RPMI-8226
NCI-H23 = test system: NCI-H23
MCF7 = test system: MCF7
OVCAR-3 = test system: OVCAR-3
HOP-92 = test system: HOP-92
EKVX = test system: EKVX
OVCAR-4 = test system: OVCAR-4
Malme-3M = test system: Malme-3M
HT-29 = test system: HT-29
SK-OV-3 = test system: SK-OV-3
SW-620 = test system: SW-620
Hs-578T = test system: Hs-578T
SR = test system: SR
SF-268 = test system: SF-268
SNB-75 = test system: SNB-75
NCI/ADR-RES = test system: NCI/ADR-RES
HCC 2998 = test system: HCC 2998
CCRF-CEM = test system: CCRF-CEM
U-251 = test system: U-251

Measured: GI50

C=C(Cl)/C(=C\Cl)CCC(Cl)C(C)C (stereo unspecified)
inactive: COLO 205 > 100 µM | SK-MEL-5 > 100 µM | NCI-H460 > 100 µM | SF-539 > 100 µM | LOX IMVI 35.1 µM | ACHN > 100 µM | MDA-N > 100 µM | DU-145 > 100 µM | HL-60 56.2 µM | A549 > 100 µM | UACC-62 > 100 µM | MDA-MB-435 > 100 µM | NCI-H522 59.4 µM | M14 84.9 µM | SK-MEL-2 > 100 µM | IGROV-1 > 100 µM | SK-MEL-28 > 100 µM | PC-3 > 100 µM | 786-0 > 100 µM | UACC-257 > 100 µM | SN12C > 100 µM | CAKI-1 > 100 µM | OVCAR-5 > 100 µM | KM12 > 100 µM | TK-10 > 100 µM | UO-31 > 100 µM | K562 54.3 µM | MOLT-4 44.2 µM | A498 > 100 µM | HCT-116 > 100 µM | NCI-H226 > 100 µM | RXF 393 > 100 µM | HOP-62 > 100 µM | SF-295 > 100 µM | BT-549 > 100 µM | SNB-19 > 100 µM | MDA-MB-231 > 100 µM | RPMI-8226 65.2 µM | NCI-H23 > 100 µM | MCF7 > 100 µM | OVCAR-3 > 100 µM | HOP-92 > 100 µM | EKVX > 100 µM | OVCAR-4 > 100 µM | Malme-3M > 100 µM | HT-29 > 100 µM | SK-OV-3 > 100 µM | SW-620 74.3 µM | Hs-578T > 100 µM | SR 56.5 µM | SF-268 > 100 µM | SNB-75 > 100 µM | NCI/ADR-RES > 100 µM | HCC 2998 > 100 µM | CCRF-CEM 41.2 µM | U-251 > 100 µM

Reference: ChEMBL document CHEMBL1201862, “PubChem BioAssay data set” (2004)
